Results published in patent US20020032178A1 (priority 2000, published 2002).

Question: With `COC(=O)c1cccc(/C=N/NC(=O)c2ccc(C)cc2)c1O` [I-2] as the compound, how does the melting point read?
Answer: Its melting point is 134 to 137 °C.
